Measured values as given in patent US11465989B2, “Guanidine compounds and use thereof” (IMMUNOMET THERAPEUTICS INC., priority 2014, dated 2022).
Structures can show the parent of a compound that is named as a salt. Where two headings read alike, the source gives them in different places.

How the values were obtained:
SK-MEL-28 cells = experiment: Cytotoxicity in low glucose condition (MTT); assay type: cell-based; conditions: SK-MEL-28, 0.75 mM glucose, 72 hours, read-out: SK-MEL-28 0.75 mM glucose Cell viability (IC50 ia)
Text: The inhibition of oxidative phosphorylation (OXPHOS) is not cytotoxic to cells in normal glucose condition, because it is postulated that normal cells have compensatory mechanism under energy stress conditions such as low glucose. However OXPHOS inhibitors show cytotoxic effect on cells in the glucose deprived condition (BirsoyK, 2014). The glucose deprived condition is observed in tumor microenvironment potentially due to poor angiogenesis. Therefore the OXPHOS inhibitors may show anti-cancer effect on cancer cells in low glucose condition that may depict tumor microenvironment.
The compounds of the present invention were evaluated their cytotoxicity in SK-MEL-28, melanoma with 0.75 mM glucose supplement. The cytotoxic effect is compared with the cytotoxicity caused by phenformin. The cytotoxicity in low glucose condition is correlated with inhibition of oxygen consumption in mitochondria.
SK-MEL-28 (HTB-72) is a melanoma cell line obtained from ATCC (MA) and cultured in RPMI 1640 media (Lifetechnologies, CA) with supplement of 10% FBS and antibiotic-antimycotic (Lifetechnologies, CA). RPMI 1640 (-Glucose) was used to prepare low glucose media and 0.75 mM glucose was supplied with D-(+)-glucose solution from Sigma. SK-MEL-28 cells were separated from culture plate using 0.5% trypsin-EDTA and 5,000 cells were plated in 96-well plate with low glucose media. After incubation at 37° C. for 24 hour, 5% CO2, the cells were treated with the compounds of present invention in FBS-free media for 72 hours. The cytotoxicity was measured by the MTT (AMRESCO, OH) assay. NADH-dependent cellular oxidoreductase reduces MTT to its insoluble […] with purple color. The enzyme depends on cell number or energy state of cells. 10 μl of 5 mg/ml MIT solution was added to each well of the assay plate and skip the well for blank. The plate was incubated at 37° C. and 5% CO2 for 2 hours. The MTT solution was removed from each well and 100 μl of DMSO was added. The plate was read by VICTOR X3 Multilabel Counter at the wavelength of 550 nm. In Table 2, the levels of IC50 are evaluated by the following criteria.

A549 cells = experiment: Inhibition of OCR (XF Analyzer); assay type: cell-based
Text: The electron transfer complex in mitochondria is composed of 5 complexes. The complex I accept electrons from NADH produced from glycolysis and TCA cycle and the electrons move to complex […] and the electron is finally transferred to O2 and water molecule is generated. During the electron transfer, proton gradient is generated and the chemical gradient is a driving source to synthesize ATP at complex V. The mitochondrial inhibition of complex I indirectly assessed by measuring the oxygen consumption rate (OCR) at complex IV. […] The solution outside of cells becomes acidic (lower pH) as lactate is transported to outside of cells. OCR and Extracellular acidification rate (ECAR) are determined by XF Analyzer (Seahorse Biosciences).
A549 cells were purchased from American Type Tissue Culture Collection ([…]) and cultured in RPMI 1640 supplied with 10% fetal bovine serum (FBS) and antibiotic-antimycotic (Lifetech, CA). A549 cells were separated with 0.5% Trypsin-EDTA and 3,000 cells were plated on 1 mg/ml poly-D-lysine (Sigma, P6407) coated XF 96 well […]. A549 cells were allowed to adhere to the wells for 24 hours under the condition of temperature, 37° C. and 5% CO2 The sensor cartridge of XF Analyzer was soaked in 200 Ad of Calibrant solution (Seahorse, MA) in a clear 96-well plate at 37° C. for 24 hours. The compounds of the present invention were diluted with RPMI 1640 without FBS, transferred to A549 cells on XF 96 well plate, and incubated further for 23 hours at 37° C. and 5% CO2. After incubation, the compound solution was exchanged with pre-warmed and pH adjusted (pH7.4) XF assay media (Seahorse) supplied with 15 mM D-glucose (Sigma), 15 mM sodium pyruvate (Lifetechnologies, CA) and 4 mM L-glutamine (Lifetechnologies, CA). The compounds of present invention were prepared in XF Assay media and added to the assay plate. The assay plate was equilibrated in XF Analyzer for 1 hour, and the reading were started by sensor cartridge. The cytotoxicity assay was followed using Cyquant (Lifetechnologies, CA) in order to calibrate the inhibition with cytotoxicity of compounds. The concentrations of the compounds were tested at […] and IC50 value was obtained from the inhibited values. That is, from OCR inhibition values at each concentration of the compound, IC50 was calculated according to Prism's dose response curve fitting.
In Table 1, the levels of OCR IC50 are evaluated by the following.

SMILES | IC50 (SK-MEL-28 cells) | IC50 (A549 cells; A549, 24 hrs) | IC50 (SK-MEL-28 cells; Homo sapiens) | IC50 (A549 cells; Homo sapiens, A549, 24 h)
N=C(N)NC(=N)NCCc1ccc2c(c1)CCCC2 [Example 30, N-1-(2-(5,6,7,8-tetrahydronaphthalen-2-yl)ethyl)biguanide hydrochloride] | < 5 µM | > 5 µM |  | 
N=C(N)NC(=N)NCc1ccc(Cl)c(Cl)c1 [Example 37, hydrochloride] |  |  | 5 to 10 µM | > 5 µM
N=C(N)NC(=N)NCCc1ccc2c(c1)CCCC2 [Example 44, N-1-2-(5,6,7,8-tetrahydronaphthalen-2-yl)ethylbiguanide hydrochloride] |  |  | < 5 µM | 2 to 5 µM
N=C(N)NC(=N)NCc1ccc2c(c1)CCCC2 [Example 48, N-1-2-(5,6,7,8-tetrahydronaphthalen-2-yl)methanebiguanide hydrochloride] |  |  | > 10 µM | < 2 µM
N=C(N)NC(=N)NCc1ccc(-c2ccccc2)cc1 [Example 49, N-1-(4-phenyl)benzylbiguanide hydrochloride] |  |  | > 10 µM | > 5 µM
Cc1ccc(CCNC(=N)NC(=N)N)cc1Cl [Example 50, N-1-(3-chloro-4-methyl)phenethylbiguanide hydrochloride] |  |  | < 5 µM | 2 to 5 µM
N=C(N)NC(=N)NCCc1ccc(F)c(Cl)c1 [Example 52, N-1-(3-chloro-4-fluoro)phenethylbiguanide hydrochloride] |  |  | 5 to 10 µM | > 5 µM
Cc1cc(CCNC(=N)NC(=N)N)ccc1Cl [Example 61, N-1-(4-chloro-3-methyl)phenethylbiguanide hydrochloride] |  |  | < 5 µM | 2 to 5 µM
N=C(N)NC(=N)NCCc1ccc2c(c1)CCC2 [Example 66, N-1-2-(2,3-dihydro-1H-inden-5-yl)ethylbiguanide hydrochloride] |  |  | < 5 µM | 2 to 5 µM
Cc1cc(CNC(=N)NC(=N)N)ccc1Br [Example 68, N-1-(4-bromo-3-methyl)benzylbiguanide hydrochloride] |  |  | 5 to 10 µM | 2 to 5 µM
N=C(N)NC(=N)NCCc1ccc(Br)c(Br)c1 [Example 70, N-1-(3,4-dibromo)phenethylbiguanide hydrochloride] |  |  | < 5 µM | 2 to 5 µM
N=C(N)NC(=N)NCCc1ccc(I)cc1 [Example 71, N-1-(4-iodo)phenethylbiguanide hydrochloride] |  |  | > 10 µM | > 5 µM
N=C(N)NC(=N)NCCc1ccc(I)c(Br)c1 [Example 72, N-1-(4-iodo-3-bromo)phenethylbiguanide hydrochloride] |  |  | 5 to 10 µM | > 5 µM
N=C(N)NC(=N)NCCc1ccc(Cl)c(I)c1 [Example 74, N-1-(3-iodo-4-chloro)phenethylbiguanide hydrochloride] |  |  | < 5 µM | < 2 µM
N=C(N)NC(=N)NCCc1ccc(Br)c(I)c1 [Example 75, N-1-(3-iodo-4-bromo)phenethylbiguanide hydrochloride] |  |  | < 5 µM | < 2 µM
N=C(N)NC(=N)NCCc1ccc(Cl)c(Br)c1 [Example 76, N-1-(3-bromo-4-chloro)phenethylbiguanide hydrochloride] |  |  | < 5 µM | 2 to 5 µM
COc1cc(CCNC(=N)NC(=N)N)ccc1I [Example 77, N-1-(4-iodo-3-methoxy)phenethylbiguanide hydrochloride] |  |  | 5 to 10 µM | 2 to 5 µM
N=C(N)NC(=N)NCCc1ccc(I)c(Cl)c1 [Example 78, N-1-(3-chloro-4-iodo)phenethylbiguanide hydrochloride] |  |  | < 5 µM | < 2 µM
COc1cc(I)ccc1CCNC(=N)NC(=N)N [Example 79, N-1-(2-methoxy-4-iodo)phenethylbiguanide hydrochloride] |  |  | 5 to 10 µM | < 2 µM
COc1cc(Cl)ccc1CCNC(=N)NC(=N)N [Example 80, N-1-(2-methoxy-4-chloro)phenethylbiguanide hydrochloride] |  |  | > 10 µM | < 2 µM
COc1cc(Br)ccc1CCNC(=N)NC(=N)N [Example 81, N1-(2-methoxy-4-bromo)phenethylbiguanide hydrochloride] |  |  | 5 to 10 µM | < 2 µM
